Assay results from patent US8293489B2, “Methods for detection of biological substances” (priority 2007, dated 2012).
Marks after values point to notes of the source that are not given here.

Legend:
Type in all cases: in vivo, human
TNFR 1 = TNFR 1 in nasal mucus in patients with hyposmia treated with theophylline
Excerpt: (§1) Tables 36-38 illustrate detection and measurement of TNFα, TNFR 1 and TNFR 2 in nasal mucus of patients with graded loss of smell following treatment with theophylline. […] Further, nasal mucus can be used as an index of disease, disease severity and efficacy of disease treatment. Without limiting the scope of the present invention, this approach is applicable to other substances in nasal mucus in relationship to other disease processes (e.g., cancer, stroke) and to follow-up of their treatment with any drug. […]
With increased smell loss pre treatment TNFR 1 levels were increased in nasal mucus in patients with Type I hyposmia (whose smell loss was increased over that of patients with Type II hyposmia). After theophylline treatment, as a dose of drug increased, TNFR 1 levels decreased in Type I associated with increases in smell function. […] The greater was the smell loss, the higher was the level of TNFR 1.

TNFR 2 = TNFR 2 in nasal mucus in patients with hyposmia treated with theophylline
Excerpt: Tables 36-38 illustrate detection and measurement of TNFα, TNFR 1 and TNFR 2 in nasal mucus of patients with graded loss of smell following treatment with theophylline. […] Further, nasal mucus can be used as an index of disease, disease severity and efficacy of disease treatment. Without limiting the scope of the present invention, this approach is applicable to other substances in nasal mucus in relationship to other disease processes (e.g., cancer, stroke) and to follow-up of their treatment with any drug.
Table 35 illustrates detection and measurement of TNFα, and soluble TNF receptors 1 and 2, moieties in the nasal mucus. TNFα, and soluble TNF receptors 1 and 2 increase in systems undergoing excessive apoptosis.
With a dose dependent increase of theophylline treatment levels of TNFR 2 in nasal mucus decreased consistent with a dose dependent increase in smell function. Levels of TNFR 2 in patients with Type I and Type II hyposmia decreased almost 50% on 600 mg theophylline consistent with their greatest return of smell function. At this highest level of theophylline levels of TNFR 2 were decreased in relationship to the decrease in smell function—TNFR 2, Type I>Type II>Type III; smell loss, Type I>Type II>Type III.

TRAIL = TRAIL in nasal mucus in patients with hyposmia before and after treatment with theophylline; conditions: for Nasal mucus TRAIL: patients with hyposmia (5)
Excerpt: Table 16 illustrates detection and measurement of TRAIL in nasal mucus in patients with hyposmia before and after treatment with theophylline at various doses. […] Without limiting the scope of the present invention, other drugs are also considered with in the scope of the present invention for the treatment of various diseases. This is one of the example of the multiple examples of drugs to treat disease in which changes of various substances found in nasal mucus reflect biochemical normalization and functional improvement in the disease process.
Table 16 illustrates detection and measurement of TRAIL in nasal mucus in patients with hyposmia before and after treatment with theophylline at various doses.

patients with hyposmia = experiment: Smell function in patients with hyposmia treated with theophylline
Excerpt: Theophylline may also restore smell function through other mechanisms.
Its continual measurement during treatment of these disorders helps in monitoring efficacy of therapy. The detection of NO in nasal mucus provides a non invasive method of diagnosing various diseases related to human physiology and pathology.

nitric oxide (NO) = experiment: NO in nasal mucus in patients with hyposmia before and after theophylline treatment; conditions: for NO in nasal mucus: Patients (12)
Excerpt: Table 33 in the examples illustrates NO in nasal mucus in patients treated with theophylline in various doses before and after drug treatment. NO levels in nasal mucus changed following the treatment of patients with smell loss. […] Its continual measurement during treatment of the disorders helps in monitoring efficacy of therapy. The detection of NO in nasal mucus provides a non invasive method of diagnosing various diseases related to human physiology and pathology. The methods of the present invention include treatment of diseases by modulating the concentrations of NO by use of drugs or agents. The method of treatment is preferably by nasal administration.
Table 33 illustrates NO levels in nasal mucus in patients treated with Theophylline in various doses before and after drug treatment. NO levels in nasal mucus changed following the treatment of patients with smell loss. […] Its continual measurement during treatment of these disorders helps in monitoring efficacy of therapy. The detection of NO in nasal mucus provides a non invasive method of diagnosing various diseases related to human physiology and pathology.

TNFα = TNFα in nasal mucus in patients with hyposmia treated with theophylline
Excerpt: as §1
These studies were extended to reveal levels of TNFα in nasal mucus of patients with graded loss of smell following treatment with theophylline (Table 36). Smell loss was graded such that loss was greatest in Type I hyposmia, less in Type II and still less in Type III (I>II>III). […] In Type I hyposmia TNFα decreased 40% after treatment with 400 mg theophylline and 57% after treatment 600 mg. In Type II hyposmia TNFα decreased 11% after treatment with 600 mg theophylline.

[1] = HYPOSMIA TYPE I (7), theophylline 200 mg orally daily
[2] = HYPOSMIA TYPE I (7), theophylline 600 mg orally daily
[3] = HYPOSMIA TYPE II (10), theophylline 200 mg orally daily
[4] = HYPOSMIA TYPE II (10), theophylline 400 mg orally daily
[5] = HYPOSMIA TYPE II (10), theophylline 600 mg orally daily
[6] = HYPOSMIA TYPE III (2), theophylline 600 mg orally daily
[7] = patients with hyposmia, stepwise increase in theophylline treatment
[8] = patients with hyposmia, theophylline at various doses
[9] = patients with hyposmia, theophylline in graded doses

`Cn1c(=O)c2[nH]cnc2n(C)c1=O` [theophylline] was tested, and the “TNFR 1 in nasal mucus” value (TNFR 1; [1]) was 6,521 ± 1,304^c, the “TNFR 1 in nasal mucus” value (TNFR 1; HYPOSMIA TYPE I (7), theophylline 400 mg orally daily) was 1,498 and the “TNFR 1 in nasal mucus” value (TNFR 1; [2]) was 1,832 ± 704^a. The “TNFR 1 in nasal mucus” value (TNFR 1; [3]) was 1,462 ± 371, the “TNFR 1 in nasal mucus” value (TNFR 1; [4]) was 1,087 ± 335 and the “TNFR 1 in nasal mucus” value (TNFR 1; [5]) was 862 ± 335. For the same compound, the “TNFR 1 in nasal mucus” value (TNFR 1; [6]) was 585 ± 335, the “change in TNFR 1 levels in nasal mucus” value (TNFR 1; Type I hyposmia, as dose of drug increased) was “decreased” and the “TNFR 1 in nasal mucus” value (TNFR 1; patients with hyposmia (19), Theophylline treatment 200) was 3,148 ± 663 pg/ml. For the same compound, the “TNFR 1 in nasal mucus” value (TNFR 1; patients with hyposmia (19), Theophylline treatment 400) was 1,146 ± 220^b pg/ml, the “TNFR 1 in nasal mucus” value (TNFR 1; patients with hyposmia (19), Theophylline treatment 600) was 1,220 ± 286^ab pg/ml and the “change in soluble TNF receptor 1 in nasal mucus” value (TNFR 1; [7]) was “significant dose-response decrease”. For the same compound, the “TNFR 2 in nasal mucus” value (TNFR 2; [1]) was 3,100 ± 1,184, the “TNFR 2 in nasal mucus” value (TNFR 2; [2]) was 1,491 ± 1,102 and the “TNFR 2 in nasal mucus” value (TNFR 2; [3]) was 1,378 ± 480. For the same compound, the “TNFR 2 in nasal mucus” value (TNFR 2; [4]) was 1,014 ± 272, the “TNFR 2 in nasal mucus” value (TNFR 2; [5]) was 553 ± 158 and the “TNFR 2 in nasal mucus” value (TNFR 2; [6]) was 436 ± 443. The “change in TNFR 2 levels in nasal mucus” value (TNFR 2; dose dependent increase of theophylline treatment) was “decreased”, the “decrease in TNFR 2 levels in nasal mucus” value (TNFR 2; patients with Type I and Type II hyposmia, 600 mg theophylline) was roughly 50% and the “TNFR 2 in nasal mucus” value (TNFR 2; patients with hyposmia (18), Theophylline treatment (mg orally daily) 200) was 1,952 ± 339 pg/ml. The “TNFR 2 in nasal mucus” value (TNFR 2; patients with hyposmia (18), Theophylline treatment (mg orally daily) 400) was 949 ± 180^c pg/ml, the “TNFR 2 in nasal mucus” value (TNFR 2; patients with hyposmia (18), Theophylline treatment (mg orally daily) 600) was 916 ± 344 pg/mL and the “change in soluble TNF receptor 2 in nasal mucus” value (TNFR 2; [7]) was “significant dose-response decrease”. The “Nasal mucus TRAIL” value (TRAIL; theophylline 200 mg) was 855 µg/mL, the “Nasal mucus TRAIL” value (TRAIL; theophylline 400 mg) was 791 µg/mL and the “Nasal mucus TRAIL” value (TRAIL; theophylline 600 mg) was 247 µg/mL. The “change in TRAIL in nasal mucus” value (TRAIL; [8]) was “dose-dependent decrease in TRAIL”, the smell function (patients with hyposmia; patients with hyposmia (loss of smell), general statement) was “restores smell function in some patients with hyposmia” and the smell function (patients with hyposmia; patients with hyposmia, 600 mg theophylline) was “restored smell function to or toward normal”. The smell function (patients with hyposmia; [8]) was “returned smell function to normal in a dose-dependent manner”, the smell function (patients with hyposmia; [9]) was “graded increases in smell function” and the “NO in nasal mucus” value (nitric oxide (NO); Theophylline 200 mg) was 0.25 ± 0.01 µg/mL. For the same compound, the “NO in nasal mucus” value (nitric oxide (NO); Theophylline 400 mg) was 0.40 ± 0.06 µg/mL, the “NO in nasal mucus” value (nitric oxide (NO); Theophylline 600 mg) was 0.59 ± 0.16 µg/mL and the “change in NO in nasal mucus” value (nitric oxide (NO); [9]) was “increases in nasal mucus NO”. The “TNF∝ in nasal mucus” value (TNFα; HYPOSMIA TYPE I (8), theophylline 400 mg orally daily) was 15.6, the “TNF∝ in nasal mucus” value (TNFα; HYPOSMIA TYPE I (8), theophylline 600 mg orally daily) was 11.2 ± 4.4 and the “TNF∝ in nasal mucus” value (TNFα; HYPOSMIA TYPE II (13), theophylline 200 mg orally daily) was 14.9 ± 2.5. For the same compound, the “TNF∝ in nasal mucus” value (TNFα; HYPOSMIA TYPE II (13), theophylline 400 mg orally daily) was 11.5 ± 3.2, the “TNF∝ in nasal mucus” value (TNFα; HYPOSMIA TYPE II (13), theophylline 600 mg orally daily) was 4.3 ± 0.8^a and the “TNF∝ in nasal mucus” value (TNFα; HYPOSMIA TYPE III (3), theophylline 600 mg orally daily) was 1.2 ± 0.7^bc. The “decrease in TNFα in nasal mucus” value (TNFα; Type I hyposmia, after treatment 600 mg theophylline) was 57%, the “decrease in TNFα in nasal mucus” value (TNFα; Type I hyposmia, after treatment with 400 mg theophylline) was 40% and the “decrease in TNFα in nasal mucus” value (TNFα; Type II hyposmia, after treatment with 600 mg theophylline) was 11%. The “change in TNFα levels in nasal mucus” value (TNFα; each hyposmia patient group, with each increased dose of theophylline) was “decreased in each patient group”, the “TNF∝ in nasal mucus” value (TNFα; patients with hyposmia (24), Theophylline treatment (mg/l) 200) was 20.0 ± 2.8 pg/mL and the “TNF∝ in nasal mucus” value (TNFα; patients with hyposmia (24), Theophylline treatment (mg/l) 400) was 12.1 ± 2.1^d pg/ml. The “TNF∝ in nasal mucus” value (TNFα; patients with hyposmia (24), Theophylline treatment (mg/l) 600) was 7.4 ± 1.8^a pg/ml and the “change in TNFα in nasal mucus” value (TNFα; [7]) was “significant dose-response decrease”.
